The results in this text go back to ChEMBL document CHEMBL2146418, “Synthesis and comparison of antiplasmodial activity of (+), (-) and racemic 7-chloro-4-(N-lupinyl)aminoquinoline” (Bioorg Med Chem, 2012).

As a reminder, the IC50 is the concentration that gives 50% inhibition.

Series [1] can be described thus: Cytotoxicity against human HMEC1 cells after 72 hrs by MTT assay. The class given is cell-based. To be noted: HMEC-1, 72 h. For orientation: Tetrazolium dyes change colour on reduction, which living cells bring about.
Series [2] has as its system Plasmodium falciparum. As to the kind of experiment: Antiplasmodial activity against chloroquine-resistant Plasmodium falciparum isolate Kenya after 72 hrs by lactate dehydrogenase assay. The class given is functional, organism-based.
The nature of series [3]: Therapeutic index, ratio of IC50 for human HMEC1 cells to IC50 for Plasmodium falciparum. The class given is cell-based. As to conditions: HMEC1 cells versus Plasmodium falciparum, read-out: Ratio IC50.
The subject of series [4] is Plasmodium falciparum. As to the kind of experiment: Antiplasmodial activity against chloroquine-sensitive Plasmodium falciparum 3D7 infected in human RBC assessed as inhibition of parasite growth after 72 hrs by lactate dehydrogenase assay. In kind it is functional, organism-based. As to conditions: 3D7, 72 h.
Series [5] in a line: Cytotoxicity against human HDF cells after 72 hrs by MTT assay. In kind it is cell-based.
Series [6] concerns Plasmodium falciparum. As to the kind of experiment: Antiplasmodial activity against chloroquine-sensitive Plasmodium falciparum D10 infected in human RBC assessed as inhibition of parasite growth after 72 hrs by lactate dehydrogenase assay. The class given is functional, organism-based. As to conditions: D10, 72 h.
The test system of series [7] is Plasmodium falciparum. As to the kind of experiment: Antiplasmodial activity against chloroquine-resistant Plasmodium falciparum W2 infected in human RBC assessed as inhibition of parasite growth after 72 hrs by lactate dehydrogenase assay. The class given is functional, organism-based. To be noted: W2, 72 h.

For the molecule `Clc1ccc2c(NC[C@@H]3CCCN4CCCC[C@H]34)ccnc2c1`, the IC50 was greater than 49000 nM in series [1]; 29.2 nM in series [2]; 28.1 nM in series [4]; 22600 nM in series [5]; 24 nM in series [6]; 53.7 nM in series [7]. Moreover, in series [3], the selectivity ratio was greater than 1000.

Take `Clc1ccc2c(NC[C@H]3CCCN4CCCC[C@@H]34)ccnc2c1`: the 50% inhibitory concentration (IC50) in series [1] is greater than 60000 nM; in series [2], 18.9 nM; in series [4], 21.9 nM; in series [5], 26900 nM; in series [6], 17.5 nM; in series [7] it was 35.8 nM. Besides, the selectivity ratio in series [3] was greater than 1000.

With `Clc1ccc2c(NCC3CCCN4CCCCC34)ccnc2c1` (racemic), the IC50 was greater than 60000 nM in series [1]; 19.4 nM in series [2]; 18.6 nM in series [4]; 24600 nM in series [5]; 16.1 nM in series [6]; 35.4 nM in series [7]. Further, in series [3], the selectivity ratio was greater than 1000.

Turning to `CCN(CC)CCCC(C)Nc1ccnc2cc(Cl)ccc12` (stereo not drawn) [CHLOROQUINE], the IC50 in series [1] and in series [5] was greater than 38000 nM each time.
